Results on eleven compounds are retold here after patent publication US20040024215A1, “Benzamide derivatives and their use as apob-100 and mtp inhibitors” (priority 2000, published 2004).

Data set [1] concerns the target human MTP (Homo sapiens, UniProt P55157). In words: human MTP activity assay (SPA, 3H-triolein transfer between liposomes). It counts as biochemical. Conditions: 3H-triolein transfer from donor to acceptor liposomes, 25 min incubation at 37° C., streptavidin-SPA beads. The protocol: The ability of the compounds of this invention to inhibit human MTP activity is measured by an in vitro assay where MTP tranfers 3H-triolein between phosphatidylcholine liposomes. The specificity of the compounds of the invention is established by comparing the effects on apoB-100 and apoprotein A-1 production. A specificity of at least 100 is preferred.
The human MTP activity assay was established using SPA technology. Donor liposomes were prepared with 3H-triolein and phosphatidylcholine, while acceptor liposomes contained biotinylated phosphatidylethanolamine and phosphatidylcholine. The MTP-mediated 3H-triolein transfer onto acceptor liposomes was allowed by a 25 min incubation at 37° C., and quantified by the addition of streptavidin-SPA beads.

human MTP, sequence (P55157 19-894): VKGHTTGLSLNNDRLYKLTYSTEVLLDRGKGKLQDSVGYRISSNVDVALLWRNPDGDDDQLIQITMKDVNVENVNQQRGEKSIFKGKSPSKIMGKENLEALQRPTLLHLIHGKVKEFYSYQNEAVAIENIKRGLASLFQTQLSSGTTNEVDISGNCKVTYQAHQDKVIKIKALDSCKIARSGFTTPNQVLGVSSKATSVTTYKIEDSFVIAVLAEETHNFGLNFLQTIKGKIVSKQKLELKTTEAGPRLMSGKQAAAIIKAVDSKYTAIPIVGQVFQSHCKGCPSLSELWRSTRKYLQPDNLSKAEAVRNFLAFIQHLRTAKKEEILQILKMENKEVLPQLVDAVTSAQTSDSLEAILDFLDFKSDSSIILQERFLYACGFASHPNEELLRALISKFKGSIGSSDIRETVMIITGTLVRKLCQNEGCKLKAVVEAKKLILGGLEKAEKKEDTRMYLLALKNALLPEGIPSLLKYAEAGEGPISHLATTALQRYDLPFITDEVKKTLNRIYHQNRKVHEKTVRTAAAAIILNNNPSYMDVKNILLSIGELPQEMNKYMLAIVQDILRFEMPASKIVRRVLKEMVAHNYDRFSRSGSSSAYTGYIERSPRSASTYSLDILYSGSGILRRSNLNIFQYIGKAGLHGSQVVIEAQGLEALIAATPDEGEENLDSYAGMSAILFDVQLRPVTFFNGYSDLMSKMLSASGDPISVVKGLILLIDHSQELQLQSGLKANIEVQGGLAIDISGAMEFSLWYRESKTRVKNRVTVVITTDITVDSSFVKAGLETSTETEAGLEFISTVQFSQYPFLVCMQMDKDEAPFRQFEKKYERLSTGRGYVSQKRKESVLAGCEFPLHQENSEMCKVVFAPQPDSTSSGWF
human MTP, sequence (P07237 18-508 partner): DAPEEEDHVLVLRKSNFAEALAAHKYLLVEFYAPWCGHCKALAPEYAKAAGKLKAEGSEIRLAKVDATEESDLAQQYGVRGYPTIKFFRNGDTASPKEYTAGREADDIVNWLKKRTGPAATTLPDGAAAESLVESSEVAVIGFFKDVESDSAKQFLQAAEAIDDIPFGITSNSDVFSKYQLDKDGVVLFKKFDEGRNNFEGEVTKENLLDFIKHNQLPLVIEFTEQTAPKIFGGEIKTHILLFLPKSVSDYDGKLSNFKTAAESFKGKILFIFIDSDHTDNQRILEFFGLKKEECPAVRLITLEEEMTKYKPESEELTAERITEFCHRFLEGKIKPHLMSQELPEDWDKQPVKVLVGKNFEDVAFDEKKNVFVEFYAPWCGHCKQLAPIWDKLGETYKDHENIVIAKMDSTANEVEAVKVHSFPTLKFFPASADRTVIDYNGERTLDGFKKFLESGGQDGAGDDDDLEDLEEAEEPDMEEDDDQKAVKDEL

In turn, `CC(c1cccc(C(F)(F)F)c1)N1CCN(c2ccc(NC(=O)c3ccccc3-c3ccc(C(F)(F)F)cc3)cc2)CC1` (stereo not drawn) [Example 4, 4′-Trifluoromethyl-biphenyl-2-carboxylic acid [4-(4-(3-trifluoromethyl-α-methyl-benzyl)-piperazin-1-yl)-phenyl]-amide] registered a melting point of 158 to 160 °C.

For the compound `O=C(Nc1ccc(N2CCN(C(c3ccccc3)c3noc(-c4ccccc4)n3)CC2)cc1)c1ccccc1-c1ccc(C(F)(F)F)cc1` (stereo not drawn) [Example 9, 4′-Trifluoromethyl-biphenyl-2-carboxylic acid [4-(4-(α(5-phenyl-[1,2,4]oxadiazol-3-yl)-benzyl)-piperazin-1-yl)-phenyl]-amide], the IC50 in data set [1] was 5.6 nM.

Take `CC(c1ccccc1)N1CCN(c2ccc(NC(=O)c3ccccc3-c3ccc(C(F)(F)F)cc3)cc2)CC1` (stereo not drawn) [Example 1, 4′-Trifluoromethyl-biphenyl-2-carboxylic acid [4-(4-(α-methyl-benzyl)-piperazin-1-yl)-phenyl]-amide]: the melting point is 194 to 196 °C.

In the case of `O=C(Nc1ccc(N2CCN(C(C(=O)NCc3ccccn3)c3ccccc3)CC2)cc1)c1ccccc1-c1ccc(C(F)(F)F)cc1` (stereo not drawn) [Example 14, 4′-Trifluoromethyl-biphenyl-2-carboxylic acid [4-(4-(α-((pyridin-2-yl-methyl)-aminocarbonyl)-benzyl)-piperazin-1-yl)-phenyl]-amide], the melting point lay in the range of 139 to 141 °C. The IC50 in data set [1] stood at 3 nM.

In data set [1], `O=C(Nc1ccc(N2CCN(C(Cn3cccn3)c3ccccc3)CC2)cc1)c1ccccc1-c1ccc(C(F)(F)F)cc1` (stereo not drawn) [Example 10, 4′-Trifluoromethyl-biphenyl-2-carboxylic acid [4-(4-(α-((pyrazol-1-yl)-methyl)-benzyl)-piperazin-1-yl)-phenyl]-amide] returned an IC50 of 157 nM.

As to `COC(=O)C(c1ccccc1)N1CCN(c2ccc(NC(=O)c3ccccc3-c3ccc(C(F)(F)F)cc3)cc2)CC1` (stereo not drawn) [Example 11, 4′-Trifluoromethyl-biphenyl-2-carboxylic acid [4-(4-(α-(methoxcyarbonyl)-benzyl)-piperazin-1-yl)-phenyl]-amide], the melting point fell in the range of 130 to 135 °C. Half-maximal inhibition in data set [1] (IC50) was put at 3.2 nM.

In the case of `Cc1ccc(C(=O)Nc2ccc(N3CCN(C(C)c4cccc(C#N)c4)CC3)cc2)c(-c2ccc(C(F)(F)F)cc2)c1` (stereo not drawn) [Example 2, 5-Methyl-4′-trifluoromethyl-biphenyl-2-carboxylic acid [4-(4-(3-cyano-α-methyl-benzyl)-piperazin-1-yl)-phenyl]-amide], the melting point was in the range of 192 to 194 °C. In data set [1], this compound gave an IC50 of 1 nM.

`CC(=O)C(c1ccc(F)cc1)N1CCN(c2ccc(NC(=O)c3ccccc3-c3ccc(C(F)(F)F)cc3)cc2)CC1` (stereo not drawn) [Example 7, 4′-trifluoromethyl-biphenyl-2-carboxylic acid [4-(4-(4-fluoro-α-acetyl-benzyl)-piperazin-1-yl)-phenyl]-amide] returned a melting point of 200 to 202 °C.

On to `O=C(Nc1ccc(N2CCN(C(C(=O)c3ccccc3)c3ccccc3)CC2)cc1)c1ccccc1-c1ccc(C(F)(F)F)cc1` (stereo not drawn) [Example 8, 4′-Trifluoromethyl-biphenyl-2-carboxylic acid [4-(4-(α-benzoyl-benzyl)-piperazin-1-yl)-phenyl]-amide], for which the melting point amounted to 165 °C. In addition, the concentration for half-maximal inhibition (IC50) in data set [1] came out at 40 nM.

Regarding `N#Cc1cccc(C(c2ccc[nH]2)N2CCN(c3ccc(NC(=O)c4ccccc4-c4ccc(C(F)(F)F)cc4)cc3)CC2)c1` (stereo not drawn) [Example 17, 4′-Trifluoromethyl-biphenyl-2-carboxylic acid [4-(4-(3-cyano-α-(pyrrol-2-yl)-benzyl)-piperazin-1-yl)-phenyl]-amide], the melting point lay in the range of 202 to 203 °C.

Compound `N#CC(c1ccccc1)N1CCN(c2ccc(NC(=O)c3ccccc3-c3ccc(C(F)(F)F)cc3)cc2)CC1` (stereo not drawn) [Example 5, 4′-Trifluoromethyl-biphenyl-2-carboxylic acid [4-(4-(α-cyano-benzyl)-piperazin-1-yl)-phenyl]-amide] gave a melting point of 204 °C.
